Assay results taken from PubChem BioAssay (NCI).
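Values below derive from 48-hour exposures of cells grown in 96-well plates, with endpoints linearly interpolated between the two concentrations bracketing the appropriate inhibition level. At the TGI there is no net growth.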

Key:
Assay in all cases: growth of human tumour cells (NCI), 48 h
A498 renal = tested on: A498 renal
OVCAR-4 ovarian = tested on: OVCAR-4 ovarian
COLO 205 colon = tested on: COLO 205 colon
A549 NSCLC = tested on: A549 NSCLC
KM12 colon = tested on: KM12 colon
CAKI-1 renal = tested on: CAKI-1 renal
SNB-19 CNS = tested on: SNB-19 CNS
HCT-116 colon = tested on: HCT-116 colon
CCRF-CEM leukemia = tested on: CCRF-CEM leukemia
MOLT-4 leukemia = tested on: MOLT-4 leukemia
HCC-2998 colon = tested on: HCC-2998 colon
SK-MEL-5 melanoma = tested on: SK-MEL-5 melanoma
EKVX NSCLC = tested on: EKVX NSCLC
SNB-75 CNS = tested on: SNB-75 CNS
M19-MEL melanoma = tested on: M19-MEL melanoma
K-562 leukemia = tested on: K-562 leukemia
HOP-18 NSCLC = tested on: HOP-18 NSCLC
SK-MEL-2 melanoma = tested on: SK-MEL-2 melanoma
SW-620 colon = tested on: SW-620 colon
SF-268 CNS = tested on: SF-268 CNS
OVCAR-5 ovarian = tested on: OVCAR-5 ovarian
DMS 114 small cell lung = tested on: DMS 114 small cell lung
NCI-H460 lung = tested on: NCI-H460 lung
SNB-78 CNS = tested on: SNB-78 CNS
SF-295 CNS = tested on: SF-295 CNS
HCT-15 colon = tested on: HCT-15 colon
HL-60(TB) leukemia = tested on: HL-60(TB) leukemia
SK-OV-3 ovarian = tested on: SK-OV-3 ovarian
M14 melanoma = tested on: M14 melanoma
RXF 393 renal = tested on: RXF 393 renal
786-0 renal = tested on: 786-0 renal
MALME-3M melanoma = tested on: MALME-3M melanoma
ACHN renal = tested on: ACHN renal
HT29 colon = tested on: HT29 colon
HOP-62 NSCLC = tested on: HOP-62 NSCLC
KM20L2 colon = tested on: KM20L2 colon
SF-539 CNS = tested on: SF-539 CNS
UACC-62 melanoma = tested on: UACC-62 melanoma
OVCAR-8 ovarian = tested on: OVCAR-8 ovarian
IGROV1 ovarian = tested on: IGROV1 ovarian
OVCAR-3 ovarian = tested on: OVCAR-3 ovarian
U251 CNS = tested on: U251 CNS
RPMI-8226 leukemia = tested on: RPMI-8226 leukemia
NCI-H23 lung = tested on: NCI-H23 lung
SN12C renal = tested on: SN12C renal
NCI-H226 lung = tested on: NCI-H226 lung
RXF-631 renal = tested on: RXF-631 renal
HOP-92 NSCLC = tested on: HOP-92 NSCLC
UO-31 renal = tested on: UO-31 renal
LOX IMVI melanoma = tested on: LOX IMVI melanoma
SK-MEL-28 melanoma = tested on: SK-MEL-28 melanoma
TK-10 renal = tested on: TK-10 renal
DLD-1 colon = tested on: DLD-1 colon
UACC-257 melanoma = tested on: UACC-257 melanoma
LXFL 529 NSCLC = tested on: LXFL 529 NSCLC
DMS 273 small cell lung = tested on: DMS 273 small cell lung

Measured: TGI

COc1cccc(NC(=O)C(=O)C(C(C)=O)c2nc3ccc(Cl)cc3[nH]c2=O)c1 (stereo unspecified)
> 100 µM: all assays above
